In paper PMC12630292 (Journal of Neural Transmission, 2025):
Like-named read-outs stand apart in the source and are kept apart here.

Columns and labels:
D2S receptor = D2S receptor (Homo sapiens, UniProt P14416); test: cell-based; settings: read-out: Emax relative to dopamine, β-arrestin assay D2S
D1 receptor [1] = molecular target: T1, D1 receptor (Homo sapiens, UniProt P21728); test: cell-based; settings: read-out: Emax relative to dopamine, β-arrestin assay D1
D3 receptor = D3 receptor (Homo sapiens, UniProt P35462); test: cell-based; settings: read-out: Emax relative to dopamine, β-arrestin assay D3
5HT2A = settings: ref Millan et al. [2002]; Newman-Tancredi et al. [2002]; cited from earlier work
D4 receptor = D4 receptor (Homo sapiens, UniProt P21917); test: cell-based; settings: read-out: Emax relative to dopamine, β-arrestin assay D4
D1 receptor [2] = molecular target: T1, D1 receptor; test: cell-based; settings: read-out: Emax relative to dopamine, internalization assay D1
D2L receptor = D2L receptor (Homo sapiens, UniProt P14416); test: cell-based; settings: read-out: Emax relative to dopamine, β-arrestin assay D2L

Emax (D2S receptor): 90%
Emax (D1 receptor [1]): 28%
Emax (D3 receptor): 89%
Emax (D4 receptor): 52%
Emax (D1 receptor [2]): 38%
Emax (D2L receptor): 83%
Compound: CN1CCc2cccc3c2[C@H]1Cc1ccc(O)c(O)c1-3 [Apomorphine]
5HT2A antagonist actions (5HT2A): weak
